From PubChem BioAssay (NCI) come the findings set out here.

In the assay the test system is MDA-MB-468 breast. Briefly: NCI tumour cell line growth inhibition, 48 h.

The structures appear in SMILES notation. Several values for one entry are separate records, joined by “and”; a condition that tells them apart may be missing. Identical values can stand only once.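 Where inhibition never reached the appropriate level, the endpoint shown equals the highest concentration tested. Otherwise, values were interpolated linearly from a five-concentration, 48-hour dose response in 96-well plates. GI50 = concentration required for 50% inhibition of growth. TGI denotes the concentration required for complete inhibition of growth.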

For `CCCCCCCCCCCCN1C(C)=CS/C1=C\C=C\c1scc(C)[n+]1CCCCCCCCCCCC`, the GI50 was 0.251 µM and the TGI was found to be 1.39 µM.

Take `CC(C)C[C@@H](NC(=O)[C@@H](Cc1ccccc1)NC(=O)c1cnccn1)B1O[C@H]2[C@H](O)[C@@H](C(=O)NCCCC[C@@H]3NC(=O)[C@@H](Cc4ccccc4)NC(=O)[C@H](CC(=O)O)NC(=O)CNC(=O)[C@H](CCCN=C(N)N)NC3=O)O[C@@H](CN)[C@H]2O1`: the GI50 is 0.00293 µM and 0.005 µM; the TGI is 0.00906 µM and 0.00535 µM.

For the molecule `Cc1ccc(S(=O)ON2CCC(C(=O)O)(c3ccccc3)CC2)cc1` (configuration not stated), the GI50 is greater than 100 µM and the TGI was greater than 100 µM.

On to `C=C1C(=O)O[C@H]2[C@H]1CC/C(COC(=O)C(=O)c1c[nH]c3ccccc13)=C\CC[C@@]1(C)O[C@@H]21`, for which the GI50 was 1.98 µM and the TGI was 3.84 µM.

Regarding `CCn1c(=O)c(-c2ccn[nH]2)cc2c(C)nc(N)nc21`, the GI50 is 0.861 µM and the TGI turned out to be 6.25 µM.

Consider `CS(=O)(=O)c1ccc(Oc2cc(F)cc(C#N)c2)c2c1[C@H](O)[C@H](F)[C@@H]2F`, for which the GI50 is greater than 100 µM and the TGI is greater than 100 µM.

Regarding `O=[N+]([O-])c1ccc(N2CCN(Cc3ccccc3)CC2)c2c1no[n+]2[O-]`, the GI50 was 1.12 µM and the TGI stood at 2.68 µM.

For `Cn1c(C(N)=O)cc2c1-c1nc(Nc3ccccc3)ncc1CCC2`, the GI50 was 3.52 µM and the TGI was determined as 15 µM.

In the case of `O=C(/C=C/c1ccco1)c1ccc(Nc2nc(Nc3ccc(F)cc3)nc(Nc3ccc(Cl)cc3)n2)cc1`, the GI50 is 22.8 µM and the TGI is greater than 100 µM.

Consider `Cc1ccc(Nc2nc(NCCO)c3ccccc3n2)cc1C`, for which the GI50 is 0.402 µM and the TGI came to 3.13 µM.

Consider `CCN1C(=O)C/C(=C\C(C)=O)Nc2ccccc21`, for which the GI50 was greater than 100 µM and the TGI is greater than 100 µM.

Regarding `Cn1ccnc1C(=O)/C=C/c1ccc(CC(=O)Nc2ccc(Cl)cc2)cc1`, the GI50 is 1.03 µM and the TGI came out at 11.3 µM.

Turning to `CC(=O)Oc1ccccc1C(=O)Nc1ccc(C(=O)/C=C/c2ccncc2)cc1`, the GI50 is 22.3 µM and the TGI amounted to 98 µM.

Turning to `COc1ccc(C(=O)Cn2c(C(=O)c3ccc(OC)cc3)nc3ccccc32)cc1`, the GI50 is 0.431 µM and the TGI is greater than 22.8 µM.

Turning to `CCN(CC)c1ccc(/C=N/NC(=O)c2ccc(S(N)(=O)=O)cc2)cc1`, the GI50 is 0.376 µM and the TGI is 3.66 µM.

As for `CCc1ccc(-c2nnc(COc3ccc(-c4nc5ccc(C)cc5[nH]4)cc3OC)o2)cc1`, the GI50 is 3.26 µM and the TGI was 16.3 µM.

Take `O=C1/C(=C/c2cccc([N+](=O)[O-])c2)COc2ccc(O)c(O)c21`: the GI50 is 1.33 µM and the TGI amounted to 3.12 µM.

`CCNC(=O)C[C@@H]1N=C(c2ccc(Cl)cc2)c2cc(OC)ccc2-n2c(C)nnc21`: the GI50 is 2.88 µM and the TGI was greater than 100 µM.

`OC(c1cc2cc(Br)ccc2c2cc(Br)ccc12)C1CCCCN1` (configuration not stated): the GI50 was 1.63 µM and the TGI amounted to 3.08 µM.

`COc1ccc(CN2C(=O)/C(=C\c3cc(OC)c(OC)c(OC)c3)c3cc(OC)ccc32)cc1`: the GI50 is 1.94 µM and the TGI is 4.52 µM.

Turning to `O=C(Nc1ccc(Cl)c([N+](=O)[O-])c1)Nc1nc2ccccc2s1`, the GI50 was 3.53 µM and the TGI is 9.76 µM.

Take `COc1cccc(-c2nn(-c3ccccc3)cc2-c2ccnc(NCCNS(=O)(=O)c3ccc(Cl)cc3)c2)c1`: the GI50 was 3.9 µM and the TGI worked out at 64.6 µM.

For the molecule `COc1ccc(C(=O)Cn2c(C(=O)c3ccc(Cl)cc3)nc3ccccc32)cc1`, the GI50 is 6.13 µM and the TGI was greater than 100 µM.

`COc1cc(/C=C(/C)[N+](=O)[O-])ccc1O`: the GI50 is 1.58 µM and 1.78 µM; the TGI is 3.2 µM and 3.62 µM.

Turning to `N#CC1=C(N)Oc2cc3c(cc2C1c1cccs1)OCO3` (configuration not stated), the GI50 is 0.219 µM and the TGI is 3.03 µM.

`Nc1c(C(=O)Nc2ccccc2)sc2nc3c(cc12)CCCCCC3`: the GI50 is 0.312 µM and the TGI was 3.73 µM.

For the molecule `COC(=O)/C=C/c1cc(O)c2c(c1)C(C(=O)OC)C(c1ccc(O)c(O)c1)O2` (configuration not stated), the GI50 was 0.521 µM and 0.646 µM; the TGI is 9.94 µM and 11.3 µM.

Regarding `CNc1ccccc1C(=O)N/N=C/C=C/c1ccccc1`, the GI50 is 0.503 µM and the TGI worked out at 15.1 µM.

Turning to `O=C(Nc1ccc(-c2nc3cc4ccccc4cc3[nH]2)cc1)c1cccc(Br)c1`, the GI50 is 2.41 µM and the TGI worked out at 6.54 µM.

Turning to `CN1CCN(Cc2ccc(-c3cc4ncnc(Nc5ccc(OCc6cccc(F)c6)c(Cl)c5)c4s3)o2)CC1`, the GI50 is 0.292 µM and the TGI turned out to be 3.22 µM.

In the case of `CC(C)C[C@H](NC(=O)[C@H](Cc1ccccc1)n1ccc(N2CCCCC2)cc1=O)B(O)O`, the GI50 is 0.264 µM and the TGI came to 0.745 µM.

As to `Oc1c(CN2CCC(N3CCOCC3)CC2)cc(Cc2cc(CN3CCC(N4CCOCC4)CC3)c(O)c3ncccc23)c2cccnc12`, the GI50 is 1.7 µM and the TGI was found to be 6.6 µM.

Turning to `CC(C)(C)Nc1nc2c(OCCc3ccccc3)cccn2c1-c1ccccc1Cl`, the GI50 was 2.5 µM and the TGI stood at 9.17 µM.

On to `O=C(Nc1ccc(S(=O)(=O)Nc2nccs2)cc1)c1cccnc1Nc1cccc(Cl)c1`, for which the GI50 is 13.9 µM and the TGI amounted to 52.2 µM.

For the molecule `O=[N+]([O-])c1cnc(Sc2ccncn2)c([N+](=O)[O-])c1`, the GI50 was 1.72 µM and the TGI turned out to be 3.55 µM.

As to `CC/C=C\C[C@H](O)C/C=C1/C(=O)C=C[C@@H]1C/C=C\CCCC(=O)NC(C)C`, the GI50 is 1.67 µM and the TGI stood at 3.89 µM.
